Molecules are shown by their SMILES.

One assay has as its target T1, mTOR-raptor complex (Rattus norvegicus, UniProt P42346+Q8N122).
T1 construct: rows headed: amount of HA-raptor that coimmunoprecipitated with AU1-mTOR; other: extracts incubated with increasing concentrations; amount of HA-raptor that coimmunoprecipitated with AU1-mTOR; other: overexpressed in 293T cells, increasing concentrati; half maximal effect on raptor dissociation from mTOR; other: AU1-mTOR and HA-raptor overexpressed in 293T cells, 1 h; association of AU1-mTOR and HA-rapto
The assay is described as follows: Coimmunoprecipitation of raptor with mTOR from 293T cells incubated with compound. Type of assay: cell-based. Particulars: overexpressed in 293T cells, increasing concentrations, 1 h. On the procedure: FIG. 11A & 11B represent data showing FTS inhibits PHAS-I phosphorylation and promotes dissociation of the mTOR-raptor complex in 293T cells. 293T cells were transfected with pcDNA3AU1-mTOR, pcDNA33HARaptor, pcDNA33HA-mLST8, and pCMV-Tag3APHAS-I (FIG. 11A). After 18 h the cells were incubated for 1 h with increasing concentrations of FTS before extracts were prepared. A sample of each extract was subjected to SDS-PAGE and immunoblotted to detect PHAS-I or PThr^36/45. AU1-mTOR was also immunoprecipitated from each extract, and immune complexes were subjected to SDSPAGE and immunoblotted with mTAb2, to detect mTOR, and with anti-HA antibodies, to detect HA-mLST8 and HA-raptor. Nontransfected 293T cells were incubated with increasing concentrations of FTS for 1 h before extracts were prepared. mTOR was immunoprecipitated with mTAb1, and samples were subjected to SDS-PAGE.
(§1) FIGS. 12A & 12B represent data showing the effects of incubating cells with increasing concentrations of FTS and GTS on mTOR activity and mTOR association with raptor and mLST8. AU1-mTOR, HA-raptor, and HAmLST8 were overexpressed in 293T cells. The cells were then incubated for 1 h with increasing concentrations of FTS (●, ▴, ▪) or GTS (∘, Δ, □) before extracts were prepared. Immunoprecipitations were then conducted with anti-AU1 antibodies. mTOR kinase activity (●, ∘) was determined by measuring ^32P incorporation into [His^6]PHAS-I in immune complex kinases assays performed with [γ-^32P]ATP. The relative amounts of HA-raptor (▴, Δ) and HA-mLST8 (▪, □) that coimmunoprecipitated with AU1-mTOR were determined after immunoblotting with anti-HA antibodies. The results (mean values±S.E. from 3 experiments) are expressed as percentages of the mTOR activity (FIG. 12A) or coimmunoprecipitating proteins (FIG. 12B) from samples incubated without FTS or GTS, and have been corrected for the amounts of AU1-mTOR immunoprecipitated.
To investigate further the inhibitory effects of FTS on mTOR signaling, the effect of the drug on the association of mTOR, raptor, and mLST8 was determined. AU1-mTOR and HA-tagged forms of raptor and mLST8 were overexpressed in 293T cells, which were then incubated with increasing concentrations of FTS before AU1-mTOR was immunoprecipitated with anti-AU1 antibodies. Immunoblots were prepared with anti-HA antibodies to assess the relative amounts of HA-raptor and HA-mLST8 that coimmunoprecipitated with AU 1-mTOR (FIG. 11A).
Results obtained with overexpressed proteins are not necessarily representative of responses of endogenous proteins. Therefore, experiments were conducted to investigate the effect FTS on the endogenous TORC1 in nontransfected cells. […]

The target of the next assay is T2, mTOR (Rattus norvegicus, UniProt P42346).
T2 construct: expressed in transfected cells; host or cells: 293T
Kind of assay: Immune complex assay of mTOR activity after incubating 293T cells with compound. Type of assay: cell-based. Particulars: for mTOR activity: 293T cells incubated with increasing concentrations. As to the method:
as §1
FIG. 12A presents results of immune complex kinases assays with AU1-mTOR from extracts of 293T cells that had been incubated with increasing concentrations of FTS.
Immune complex assay of mTOR activity—AU1-mTOR was immunoprecipitated by using anti-AU1 antibody bound to protein G-agarose beads as described previously (McMahon, et al., (2002) Mol. Cell. Biol. 22, 7428-7438). Endogenous mTOR was immunoprecipitated in the same manner, except that mTAb1 was used instead of anti-AU1 antibody. To measure kinase activity, exhaustively washed immune complexes were suspended in 20 μl of Buffer A (50 mM NaCl, 0.1 mM EGTA, 1 mM dithiothreitol (DTT), […], 10 mM Na-HEPES, and 50 mM β-glycerophosphate, pH 7.4.). The kinase reactions were initiated by adding 20 μl of Buffer A supplemented with 2 mM [γ-^32P]ATP, 20 mM MnCl2 and 40 μg/ml of [His^6]PHAS-I. In experiments in which the effects of wortmannin were investigated, DTT was omitted from the reactions, and [His^6]PHAS-I that had been reduced and alkylated with N-ethylmaleimide was used as substrate. Reactions were terminated after 10 min at 30° by adding SDS sample buffer. Samples were subjected to SDS-PAGE and the relative amounts of ^32P incorporated into [His^6]PHAS-I were determined.

With `CC(C)=CCC/C(C)=C/CC/C(C)=C/CSc1ccccc1C(=O)O` [FTS, farnesylthiosalicylic acid], the “amount of HA-raptor that coimmunoprecipitated with AU1-mTOR” value at mTOR-raptor complex is “progressive decrease”. For the same compound, at mTOR (293T cells incubated 1 h, read-out: half maximal effect on inhibition of AU1-mTOR activity), the IC50 was in the range of 20 to 30 µM. Besides, the mTOR activity entry on mTOR is “stable decrease in mTOR activity”.

Take `CC(C)=CCC/C(C)=C/CSc1ccccc1C(=O)O` [GTS, S-geranylthiosalicylic acid, reference compound]: the “amount of HA-raptor that coimmunoprecipitated with AU1-mTOR” value on mTOR-raptor complex is recorded as “relatively little effect”. Also, the mTOR activity entry at mTOR is given as “slightly decreased”.

For the origin of these results see patent publication US20070037887A1, “Blockade of mtor to prevent a hormonal adaptive response” (University of Virginia Patent Foundation, priority 2003, published 2007).
